# US20230063794A1, “STAPLED TRIAZOLE CO-AGONISTS OF THE GLUCAGON AND GLP-1 RECEPTORS” (Merck Sharp & Dohme LLC, priority 2019, published 2023)
# pEC50: −log10 of the molar value. Starred links: 1 amine or outer side, 2 acyl side, 3 side chain; linkers in the order of their positions; H or OH if unused. Positions of bridges follow the written chain, without caps; N, C: chain ends. Non-standard residues stand in square brackets, D forms with d. Residues, ends and D or L forms follow the SMILES beside them. Groups on a side chain read outwards from the residue. Triazole bridges read from a SMILES are 1,4-linked. *: point of attachment. Lys(N3) = [N-]=[N+]=NCCCC[C@H](N)C(=O)O; γGlu = O=C(O)[C@H](CCC(=O)[*:2])N[*:1]; Met(O2) = CS(=O)(=O)CC[C@H](N)C(=O)O; Palmitoyl = CCCCCCCCCCCCCCCC(=O)*; dPra = C#CC[C@@H](N)C(=O)O; Nle = CCCC[C@H](N)C(=O)O; Aib = CC(C)(N)C(=O)O
# How the values were obtained:
# human GCGR = target: T1, human GCGR (Homo sapiens, UniProt P47871); test: cAMP activity assay in cells expressing human GCGR; format: cell-based; conditions: for hGCGR/hGLP1R (hTone): ratio of human GCGR EC50 to human GLP1R EC50
# T1 construct: expressed in transfected cells; grown under Blasticidin and Hygromycin selection
# Protocol: (§1) Activity of the peptides at the Glucagon receptor (GCGR) and GLP-1 receptor (GLP1R) was measured in a cAMP activity assay.
# (§2) Peptides were dissolved in 100% DMSO and serially diluted to generate 10 point titrations. The peptide solutions were then transferred into 384-well assay plates (150 nL/well). Assay ready frozen cells expressing human GLP1R or human GCGR were suspended in growth media consisting of DMEM medium (GIBCO), 10% FBS (GIBCO), 1× NEAA(GIBCO), 1× P/S (GIBCO), 10 ug/ml Blasticidin (GIBCO) and 200 μg/mL Hygromycin (GIBCO). Cells were then diluted in assay buffer consisting of PBS (GIBCO), 7.5% BSA (Perkin Elmer), 100 μM RO 20-1724 (Sigma), with or without 20% human serum (MP Biomedical). The cell suspensions (15 μL) were then added to the assay plates containing the peptide solutions (30,000 cells/well for human GCGR; 10,000 cells/well for human GLP1R). The cells were incubated for 1 hour at room temperature in the dark. Production of cAMP was determined using HitHunter™ cAMPXS kits (DiscoverX) following manufacturer protocol. The plates were incubated for overnight at room temperature in the dark. Luminescence was measured using an EnVision Multilabel plate reader (Perkin Elmer). Native GLP-1 and Glucagon (Bachem) are used as control peptides. EC50 values were calculated using uses a 4 parameter logistic fit based on the Levenberg-Marquardt algorithm.
# human GLP1R = target: T2, human GLP1R (Homo sapiens, UniProt P43220); test: cAMP activity assay in cells expressing human GLP1R; format: cell-based; conditions: cAMP production, HitHunter cAMPXS, 1 hour; assay buffer with or without 20% human serum (not given)
# T2 construct: expressed in transfected cells; grown under Blasticidin and Hygromycin selection
# Protocol: as §1, §2
# T1 sequence (P47871 26-477): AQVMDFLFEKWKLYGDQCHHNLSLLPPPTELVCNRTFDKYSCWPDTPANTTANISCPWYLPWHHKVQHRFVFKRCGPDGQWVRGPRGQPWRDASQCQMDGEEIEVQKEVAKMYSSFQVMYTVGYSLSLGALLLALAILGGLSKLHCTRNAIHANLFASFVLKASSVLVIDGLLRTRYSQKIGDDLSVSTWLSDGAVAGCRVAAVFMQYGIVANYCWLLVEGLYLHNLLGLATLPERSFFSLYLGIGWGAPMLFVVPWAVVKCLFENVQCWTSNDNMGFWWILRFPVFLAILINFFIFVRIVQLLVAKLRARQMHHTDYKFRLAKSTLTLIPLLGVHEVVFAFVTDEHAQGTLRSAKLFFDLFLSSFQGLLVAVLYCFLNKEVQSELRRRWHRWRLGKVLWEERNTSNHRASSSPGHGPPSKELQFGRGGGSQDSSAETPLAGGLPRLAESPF
# T2 sequence (P43220 24-463): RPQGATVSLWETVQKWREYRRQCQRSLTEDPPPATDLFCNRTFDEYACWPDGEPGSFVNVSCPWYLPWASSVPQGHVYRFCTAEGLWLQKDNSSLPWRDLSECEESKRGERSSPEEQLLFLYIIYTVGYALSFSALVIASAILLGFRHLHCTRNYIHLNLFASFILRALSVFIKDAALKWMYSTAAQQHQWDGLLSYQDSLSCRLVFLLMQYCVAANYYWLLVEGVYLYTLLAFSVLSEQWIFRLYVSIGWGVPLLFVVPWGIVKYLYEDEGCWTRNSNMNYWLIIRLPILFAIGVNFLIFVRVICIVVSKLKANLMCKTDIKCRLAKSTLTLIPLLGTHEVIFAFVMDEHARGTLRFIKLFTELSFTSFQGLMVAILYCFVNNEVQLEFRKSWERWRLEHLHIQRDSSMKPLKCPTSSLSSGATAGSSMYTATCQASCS
SMILES,hGCGR/hGLP1R (hTone) (human GCGR),pEC50 (human GLP1R),"pEC50 (human GCGR; cAMP production, HitHunter cAMPXS, 1 hour, assay buffer with or without 20% human serum (not given))"
CCCCCCCCCCCCCCCC(=O)N[C@@H](CCC(=O)N[C@@H](CCC(=O)NCCCC[C@H](NC(=O)[C@H](CC(=O)O)NC(=O)[C@H](CO)NC(=O)[C@@H](NC(=O)[C@H](Cc1ccccc1)NC(=O)[C@@H](NC(=O)CNC(=O)[C@H](CCC(N)=O)NC(=O)C(C)(C)NC(=O)[C@@H](N)Cc1c[nH]cn1)[C@@H](C)O)[C@@H](C)O)C(=O)N[C@@H](CO)C(=O)N[C@@H](CCCCN)C(=O)N[C@@H](Cc1ccc(O)cc1)C(=O)N[C@@H](CC(C)C)C(=O)N[C@@H](CC(=O)O)C(=O)N[C@@H]1Cc2cn(nn2)CCCC[C@@H](C(=O)N[C@@H](CC(=O)O)C(=O)N[C@@H](Cc2ccccc2)C(=O)N[C@H](C(=O)N[C@@H](CCC(N)=O)C(=O)N[C@@H](Cc2c[nH]c3ccccc23)C(=O)N[C@@H](CC(C)C)C(=O)N[C@@H](CCCC)C(=O)N[C@@H](CC(=O)O)C(=O)N[C@H](C(N)=O)[C@@H](C)O)C(C)C)NC(=O)[C@H](C)NC(=O)[C@H](C)NC(=O)[C@H](CCCNC(=N)N)NC1=O)C(=O)O)C(=O)O [compound 16] (H-H[Aib]QGTFTSDK([γGlu-γGlu-Palmitoyl])SKYLD[dPra]RAA[Lys(N3)]DFVQWL[Nle]DT-NH2; triazole 16-20; N-terminus assumed),1.13,10.38,
CCCCCCCCCCCCCCCC(=O)N[C@@H](CCC(=O)N[C@@H](CCC(=O)NCCCC[C@H](NC(=O)[C@H](CC(=O)O)NC(=O)[C@H](CO)NC(=O)[C@@H](NC(=O)[C@H](Cc1ccccc1)NC(=O)[C@@H](NC(=O)CNC(=O)[C@H](CCC(N)=O)NC(=O)C(C)(C)NC(=O)[C@@H](N)Cc1c[nH]cn1)[C@@H](C)O)[C@@H](C)O)C(=O)N[C@@H](CO)C(=O)N[C@@H](CCCCN)C(=O)N[C@@H](Cc1ccc(O)cc1)C(=O)N[C@@H](CC(C)C)C(=O)N[C@@H](CC(=O)O)C(=O)NC(C)(C)C(=O)N[C@@H]1Cc2cn(nn2)CCCC[C@@H](C(=O)N[C@@H](Cc2ccccc2)C(=O)N[C@H](C(=O)N[C@@H](CCC(N)=O)C(=O)N[C@@H](Cc2c[nH]c3ccccc23)C(=O)N[C@@H](CC(C)C)C(=O)N[C@@H](CCCC)C(=O)N[C@@H](CC(=O)O)C(=O)N[C@H](C(N)=O)[C@@H](C)O)C(C)C)NC(=O)[C@H](CCC(N)=O)NC(=O)[C@H](C)NC(=O)[C@H](C)NC1=O)C(=O)O)C(=O)O [compound 18] (H-H[Aib]QGTFTSDK([γGlu-γGlu-Palmitoyl])SKYLD[Aib][dPra]AAQ[Lys(N3)]FVQWL[Nle]DT-NH2; triazole 17-21),1.96,,
CCCCCCCCCCCCCCCC(=O)N[C@@H](CCC(=O)N[C@@H](CCC(=O)NCCCC[C@H](NC(=O)[C@H](CC(=O)O)NC(=O)[C@H](CO)NC(=O)[C@@H](NC(=O)[C@H](Cc1ccccc1)NC(=O)[C@@H](NC(=O)CNC(=O)[C@H](CCC(N)=O)NC(=O)C(C)(C)NC(=O)[C@@H](N)Cc1c[nH]cn1)[C@@H](C)O)[C@@H](C)O)C(=O)N[C@@H](CO)C(=O)N[C@@H](CCCCN)C(=O)N[C@@H](Cc1ccc(O)cc1)C(=O)N[C@@H](CC(C)C)C(=O)N[C@@H](CC(=O)O)C(=O)NC(C)(C)C(=O)N[C@@H](CCCNC(=N)N)C(=O)N[C@@H](C)C(=O)N[C@@H](C)C(=O)N[C@@H]1Cc2cn(nn2)CCCC[C@@H](C(=O)N[C@@H](Cc2c[nH]c3ccccc23)C(=O)N[C@@H](CC(C)C)C(=O)N[C@@H](CCS(C)(=O)=O)C(=O)N[C@@H](CC(=O)O)C(=O)N[C@H](C(=O)N[C@@H](CCCCN)C(=O)N[C@@H](CCC(N)=O)C(=O)O)[C@@H](C)O)NC(=O)[C@H](C(C)C)NC(=O)[C@H](Cc2ccccc2)NC(=O)[C@H](CC(=O)O)NC1=O)C(=O)O)C(=O)O [compound 21] (H-H[Aib]QGTFTSDK([γGlu-γGlu-Palmitoyl])SKYLD[Aib]RAA[dPra]DFV[Lys(N3)]WL[Met(O2)]DTKQ-OH; triazole 20-24),4.5,,
CSCC[C@@H]1NC(=O)[C@H](CC(C)C)NC(=O)[C@H](Cc2c[nH]c3ccccc23)NC(=O)[C@H](NC(=O)[C@@H](NC(=O)[C@H](Cc2ccccc2)NC(=O)[C@H](CC(=O)O)NC(=O)[C@H](CCC(N)=O)NC(=O)[C@H](C)NC(=O)[C@H](C)NC(=O)[C@H](CCCNC(=N)N)NC(=O)C(C)(C)NC(=O)[C@H](CC(=O)O)NC(=O)[C@H](CC(C)C)NC(=O)[C@H](Cc2ccc(O)cc2)NC(=O)[C@H](CCCCN)NC(=O)[C@H](CO)NC(=O)[C@H](CCCCN)NC(=O)[C@H](CC(=O)O)NC(=O)[C@H](CO)NC(=O)[C@@H](NC(=O)[C@H](Cc2ccccc2)NC(=O)[C@@H](NC(=O)CNC(=O)[C@H](CCC(N)=O)NC(=O)C(C)(C)NC(=O)[C@@H](N)Cc2c[nH]cn2)[C@@H](C)O)[C@@H](C)O)C(C)C)Cc2cn(nn2)CCCC[C@@H](C(=O)N[C@H](C(=O)N[C@@H](CCCCN)C(=O)N[C@@H](CCC(N)=O)C(=O)O)[C@@H](C)O)NC1=O [compound 11] (H-H[Aib]QGTFTSDKSKYLD[Aib]RAAQDFV[dPra]WLM[Lys(N3)]TKQ-OH; triazole 24-28; N-terminus assumed),,,≤ 8.30
CCCCCCCCCCCCCCCC(=O)N[C@@H](CCC(=O)N[C@@H](CCC(=O)NCCCC[C@H](NC(=O)[C@H](CC(=O)O)NC(=O)[C@H](CO)NC(=O)[C@@H](NC(=O)[C@H](Cc1ccccc1)NC(=O)[C@@H](NC(=O)CNC(=O)[C@H](CCC(N)=O)NC(=O)[C@@H](CO)NC(=O)[C@@H](N)Cc1c[nH]cn1)[C@@H](C)O)[C@@H](C)O)C(=O)N[C@@H](CO)C(=O)N[C@@H](CCCCN)C(=O)N[C@@H](Cc1ccc(O)cc1)C(=O)N[C@@H](CC(C)C)C(=O)N[C@@H](CC(=O)O)C(=O)N[C@@H](C)C(=O)N[C@@H](CCCNC(=N)N)C(=O)N[C@@H](C)C(=O)N[C@@H](C)C(=O)N[C@@H](CCC(N)=O)C(=O)N[C@@H](CC(=O)O)C(=O)N[C@@H](Cc1ccccc1)C(=O)N[C@H](C(=O)N[C@H]1CCCCn2cc(nn2)C[C@H](C(=O)N[C@H](C(N)=O)[C@@H](C)O)NC(=O)[C@H](CC(C)C)NC(=O)[C@H](CC(C)C)NC(=O)[C@H](Cc2c[nH]c3ccccc23)NC1=O)C(C)C)C(=O)O)C(=O)O [compound 24] (H-H[dS]QGTFTSDK([γGlu-γGlu-Palmitoyl])SKYLDARAAQDFV[Lys(N3)]WLL[dPra]T-NH2; triazole 24-28; N-terminus assumed),0.54,,
CCCCCCCCCCCCCCCC(=O)N[C@@H](CCC(=O)N[C@@H](CCC(=O)NCCCC[C@H](NC(=O)[C@H](CC(=O)O)NC(=O)[C@H](CO)NC(=O)[C@@H](NC(=O)[C@H](Cc1ccccc1)NC(=O)[C@@H](NC(=O)CNC(=O)[C@H](CCC(N)=O)NC(=O)[C@@H](CO)NC(=O)[C@@H](N)Cc1c[nH]cn1)[C@@H](C)O)[C@@H](C)O)C(=O)N[C@@H](CO)C(=O)N[C@@H](CCCCN)C(=O)N[C@@H](Cc1ccc(O)cc1)C(=O)N[C@@H](CC(C)C)C(=O)N[C@@H](CC(=O)O)C(=O)N[C@@H](CCC(=O)O)C(=O)N[C@@H](CCCNC(=N)N)C(=O)N[C@@H](C)C(=O)N[C@@H](C)C(=O)N[C@@H]1Cc2cn(nn2)CCCC[C@@H](C(=O)N[C@@H](Cc2c[nH]c3ccccc23)C(=O)N[C@@H](CC(C)C)C(=O)N[C@@H](CC(C)C)C(=O)N[C@@H](CC(=O)O)C(=O)N[C@H](C(N)=O)[C@@H](C)O)NC(=O)[C@H](C(C)C)NC(=O)[C@H](Cc2ccccc2)NC(=O)[C@H](CC(=O)O)NC1=O)C(=O)O)C(=O)O [compound 7] (H-H[dS]QGTFTSDK([γGlu-γGlu-Palmitoyl])SKYLDERAA[dPra]DFV[Lys(N3)]WLLDT-NH2; triazole 20-24),0.95,10.38,
CCCCCCCCCCCCCCCC(=O)N[C@@H](CCC(=O)N[C@@H](CCC(=O)NCCCC[C@H](NC(=O)[C@H](CC(=O)O)NC(=O)[C@H](CO)NC(=O)[C@@H](NC(=O)[C@H](Cc1ccccc1)NC(=O)[C@@H](NC(=O)CNC(=O)[C@H](CCC(N)=O)NC(=O)C(C)(C)NC(=O)[C@@H](N)Cc1c[nH]cn1)[C@@H](C)O)[C@@H](C)O)C(=O)N[C@@H](CO)C(=O)N[C@@H](CCCCN)C(=O)N[C@@H](Cc1ccc(O)cc1)C(=O)N[C@@H](CC(C)C)C(=O)N[C@@H](CC(=O)O)C(=O)NC(C)(C)C(=O)N[C@@H](CCCNC(=N)N)C(=O)N[C@@H](C)C(=O)N[C@@H](C)C(=O)N[C@@H](CCC(N)=O)C(=O)N[C@@H](CC(=O)O)C(=O)N[C@@H](Cc1ccccc1)C(=O)N[C@H](C(=O)N[C@@H]1Cc2cn(nn2)CCCC[C@@H](C(=O)N[C@H](C(N)=O)[C@@H](C)O)NC(=O)[C@H](CCCC)NC(=O)[C@H](CC(C)C)NC(=O)[C@H](Cc2c[nH]c3ccccc23)NC1=O)C(C)C)C(=O)O)C(=O)O [compound 19],0.99,,
